PubChem BioAssay (NCI)
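Grown in 96-well plates, cells were treated for 48 hours with each compound at five concentrations. Insufficient inhibition: endpoint recorded as highest concentration tested. Abbreviation: GI50, concentration required for 50% inhibition of growth. TGI denotes the concentration required for complete inhibition of growth.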

Legend:
Assay in all cases: NCI anticancer screen, dose series, 48 h
UO-31 renal = test system: UO-31 renal
SF-295 CNS = test system: SF-295 CNS
ACHN renal = test system: ACHN renal
SN12C renal = test system: SN12C renal
MDA-MB-231 breast = test system: MDA-MB-231 breast
K-562 leukemia = test system: K-562 leukemia
HCT-15 colon = test system: HCT-15 colon
MCF7 breast = test system: MCF7 breast
HL-60(TB) leukemia = test system: HL-60(TB) leukemia
HCC-2998 colon = test system: HCC-2998 colon
NCI-H522 lung = test system: NCI-H522 lung
786-0 renal = test system: 786-0 renal
HS 578T breast = test system: HS 578T breast
OVCAR-4 ovarian = test system: OVCAR-4 ovarian
SK-MEL-2 melanoma = test system: SK-MEL-2 melanoma
RXF 393 renal = test system: RXF 393 renal
IGROV1 ovarian = test system: IGROV1 ovarian
PC-3 prostate = test system: PC-3 prostate
BT-549 breast = test system: BT-549 breast
TK-10 renal = test system: TK-10 renal
OVCAR-8 ovarian = test system: OVCAR-8 ovarian
HOP-92 NSCLC = test system: HOP-92 NSCLC
SF-539 CNS = test system: SF-539 CNS
SK-MEL-5 melanoma = test system: SK-MEL-5 melanoma
SK-MEL-28 melanoma = test system: SK-MEL-28 melanoma
MOLT-4 leukemia = test system: MOLT-4 leukemia
KM12 colon = test system: KM12 colon
A498 renal = test system: A498 renal
MDA-MB-435 = test system: MDA-MB-435
DU-145 prostate = test system: DU-145 prostate
EKVX NSCLC = test system: EKVX NSCLC
MALME-3M melanoma = test system: MALME-3M melanoma
SNB-19 CNS = test system: SNB-19 CNS
NCI-H226 lung = test system: NCI-H226 lung
SW-620 colon = test system: SW-620 colon
A549 NSCLC = test system: A549 NSCLC
U251 CNS = test system: U251 CNS
UACC-257 melanoma = test system: UACC-257 melanoma
COLO 205 colon = test system: COLO 205 colon
T-47D breast = test system: T-47D breast
HCT-116 colon = test system: HCT-116 colon
SF-268 CNS = test system: SF-268 CNS
RPMI-8226 leukemia = test system: RPMI-8226 leukemia
SR leukemia = test system: SR leukemia
OVCAR-3 ovarian = test system: OVCAR-3 ovarian
HT29 colon = test system: HT29 colon
NCI-H460 lung = test system: NCI-H460 lung
UACC-62 melanoma = test system: UACC-62 melanoma
SNB-75 CNS = test system: SNB-75 CNS
SK-OV-3 ovarian = test system: SK-OV-3 ovarian
M14 melanoma = test system: M14 melanoma
HOP-62 NSCLC = test system: HOP-62 NSCLC
NCI/ADR-RES ovarian = test system: NCI/ADR-RES ovarian
OVCAR-5 ovarian = test system: OVCAR-5 ovarian
LOX IMVI melanoma = test system: LOX IMVI melanoma
CAKI-1 renal = test system: CAKI-1 renal

With `CC(=O)Oc1ccccc1C(=O)Nc1ccc(C(=O)/C=C/c2ccncc2)cc1` the GI50 (UO-31 renal) was 63.2 µM, the TGI (UO-31 renal) was > 100 µM and the GI50 (SF-295 CNS) was > 100 µM. For the same compound, the TGI (SF-295 CNS) was > 100 µM, the GI50 (ACHN renal) was 59.7 µM and the TGI (ACHN renal) was > 100 µM. For the same compound, the GI50 (SN12C renal) was 55.3 µM, the TGI (SN12C renal) was > 100 µM and the GI50 (MDA-MB-231 breast) was > 100 µM. For the same compound, the TGI (MDA-MB-231 breast) was > 100 µM, the GI50 (K-562 leukemia) was 22.7 µM and the TGI (K-562 leukemia) was > 100 µM. The GI50 (HCT-15 colon) was 25.7 µM, the TGI (HCT-15 colon) was > 100 µM and the GI50 (MCF7 breast) was 6.13 µM. For the same compound, the TGI (MCF7 breast) was > 100 µM, the GI50 (HL-60(TB) leukemia) was 34.8 µM and the TGI (HL-60(TB) leukemia) was > 100 µM. The GI50 (HCC-2998 colon) was 22.2 µM, the TGI (HCC-2998 colon) was 55.2 µM and the GI50 (NCI-H522 lung) was > 100 µM. The TGI (NCI-H522 lung) was > 100 µM, the GI50 (786-0 renal) was > 100 µM and the TGI (786-0 renal) was > 100 µM. For the same compound, the GI50 (HS 578T breast) was 57.4 µM, the TGI (HS 578T breast) was > 100 µM and the GI50 (OVCAR-4 ovarian) was 85.8 µM. For the same compound, the TGI (OVCAR-4 ovarian) was > 100 µM, the GI50 (SK-MEL-2 melanoma) was > 100 µM and the TGI (SK-MEL-2 melanoma) was > 100 µM. For the same compound, the GI50 (RXF 393 renal) was 24.4 µM, the TGI (RXF 393 renal) was 98.9 µM and the GI50 (IGROV1 ovarian) was 51.7 µM. For the same compound, the TGI (IGROV1 ovarian) was > 100 µM, the GI50 (PC-3 prostate) was 49.8 µM and the TGI (PC-3 prostate) was > 100 µM. For the same compound, the GI50 (BT-549 breast) was 25.1 µM, the TGI (BT-549 breast) was > 100 µM and the GI50 (TK-10 renal) was > 100 µM. For the same compound, the TGI (TK-10 renal) was > 100 µM, the GI50 (OVCAR-8 ovarian) was > 100 µM and the TGI (OVCAR-8 ovarian) was > 100 µM. For the same compound, the GI50 (HOP-92 NSCLC) was 4.6 µM, the TGI (HOP-92 NSCLC) was > 100 µM and the GI50 (SF-539 CNS) was 30.5 µM. For the same compound, the TGI (SF-539 CNS) was > 100 µM, the GI50 (SK-MEL-5 melanoma) was > 100 µM and the TGI (SK-MEL-5 melanoma) was > 100 µM. For the same compound, the GI50 (SK-MEL-28 melanoma) was > 100 µM, the TGI (SK-MEL-28 melanoma) was > 100 µM and the GI50 (MOLT-4 leukemia) was 40.2 µM. The TGI (MOLT-4 leukemia) was > 100 µM, the GI50 (KM12 colon) was 25.9 µM and the TGI (KM12 colon) was > 100 µM. For the same compound, the GI50 (A498 renal) was > 100 µM, the TGI (A498 renal) was > 100 µM and the GI50 (MDA-MB-435) was 27.8 µM. The TGI (MDA-MB-435) was > 100 µM, the GI50 (DU-145 prostate) was 58.2 µM and the TGI (DU-145 prostate) was > 100 µM. For the same compound, the GI50 (EKVX NSCLC) was > 100 µM, the TGI (EKVX NSCLC) was > 100 µM and the GI50 (MALME-3M melanoma) was > 100 µM. For the same compound, the TGI (MALME-3M melanoma) was > 100 µM, the GI50 (SNB-19 CNS) was > 100 µM and the TGI (SNB-19 CNS) was > 100 µM. The GI50 (NCI-H226 lung) was > 100 µM, the TGI (NCI-H226 lung) was > 100 µM and the GI50 (SW-620 colon) was 24.3 µM. For the same compound, the TGI (SW-620 colon) was > 100 µM, the GI50 (A549 NSCLC) was > 100 µM and the TGI (A549 NSCLC) was > 100 µM. For the same compound, the GI50 (U251 CNS) was 35.6 µM, the TGI (U251 CNS) was > 100 µM and the GI50 (UACC-257 melanoma) was > 100 µM. For the same compound, the TGI (UACC-257 melanoma) was > 100 µM, the GI50 (COLO 205 colon) was 38.1 µM and the TGI (COLO 205 colon) was > 100 µM. For the same compound, the GI50 (T-47D breast) was 60 µM, the TGI (T-47D breast) was > 100 µM and the GI50 (HCT-116 colon) was 13.3 µM. For the same compound, the TGI (HCT-116 colon) was 28.2 µM, the GI50 (SF-268 CNS) was 61.8 µM and the TGI (SF-268 CNS) was > 100 µM. The GI50 (RPMI-8226 leukemia) was 15 µM, the TGI (RPMI-8226 leukemia) was 49.2 µM and the GI50 (SR leukemia) was 22.4 µM. The TGI (SR leukemia) was 89.5 µM, the GI50 (OVCAR-3 ovarian) was 36.1 µM and the TGI (OVCAR-3 ovarian) was > 100 µM. For the same compound, the GI50 (HT29 colon) was 30.5 µM, the TGI (HT29 colon) was > 100 µM and the GI50 (NCI-H460 lung) was 36.6 µM. The TGI (NCI-H460 lung) was > 100 µM, the GI50 (UACC-62 melanoma) was > 100 µM and the TGI (UACC-62 melanoma) was > 100 µM. For the same compound, the GI50 (SNB-75 CNS) was > 100 µM, the TGI (SNB-75 CNS) was > 100 µM and the GI50 (SK-OV-3 ovarian) was > 100 µM. The TGI (SK-OV-3 ovarian) was > 100 µM, the GI50 (M14 melanoma) was 40.8 µM and the TGI (M14 melanoma) was > 100 µM. For the same compound, the GI50 (HOP-62 NSCLC) was > 100 µM, the TGI (HOP-62 NSCLC) was > 100 µM and the GI50 (NCI/ADR-RES ovarian) was > 100 µM. The TGI (NCI/ADR-RES ovarian) was > 100 µM, the GI50 (OVCAR-5 ovarian) was > 100 µM and the TGI (OVCAR-5 ovarian) was > 100 µM. It also gave a GI50 (LOX IMVI melanoma) of 12.8 µM, a TGI (LOX IMVI melanoma) of 34.8 µM and a GI50 (CAKI-1 renal) of 42.8 µM. For the same compound, the TGI (CAKI-1 renal) was > 100 µM.
